Consider one compound from patent US20260151446A1, “IMPROVED ORAL BIOAVAILABILITY FORMULATION FOR MITRAGYNA SPECIOSA (KRATOM)” (priority 2022, published 2026).

The conditions of data set [1]: rats; delivered as a purified aqueous solution; cited from earlier work.
For data set [2] the following is noted: single oral dose of 5 mg/kg mitragynine equivalent; female beagle dogs; cited from earlier work.
Data set [3] can be described thus: Proof of concept pharmacokinetic / bioavailability study, plasma mitragynine after single dose. The format is in vivo, Sprague Dawley rats. The conditions noted are these: male rats. How it is done: Once the capsule formulation was finalized, a proof of concept and safety study was carried out in Sprague Dawley rats. Male and female rats (250±25 g) were purchased from Envigo (Indianapolis, IN, USA) with indwelling jugular vein cannulas and acclimated ≥72 h in a temperature- and humidity-controlled vivarium on a 12 h light/dark cycle. Study protocols were approved by the Institutional Animal Care and Use Committee (IACUC) at the University of Florida, which is fully accredited by the Association for Assessment and Accreditation of Laboratory Animal Care International (AAALAC) and were written in accordance with the National Institutes of Health (NIH) Guide for the Care and Use of Laboratory Animals.
Rats were fasted for 10 h prior to dosing and an additional 2 h post-dose. Rats were dosed with one size 9 gelatin capsule with fill weights of 19.5±0.5 mg, (about 5.1 mg kratom or 2.3 mg mitragynine). […] Rats were connected to an automatic blood collection system (Bioanalytical Systems Inc., West Lafayette, IN, USA) and blood samples were taken at pre-dose, 0.08, 0.17, 0.25, 0.5, 0.75, 1, 2, 4, 6, 8, 12, 18, and 24 h. At the completion of the study, plasma samples were separated by centrifugation at 850×g for 10 min at 4° C. and stored at −20° C. until analysis.
To process plasma (rat or dog) samples for analysis, 20 μL aliquots of each sample were taken. To prepare calibration standards (CS), 2.0 μL of mix stock were added to 18 μL of blank plasma. This generated eight standards of 2.5, 5, 25, 50, 100, 150, 250, and 500 ng/mL, in the respective plasma. The same process was used to generate the lower limit of quantification (LLOQ) (2.5 ng/mL), low quality control (LQC) (6.25 ng/mL), medium quality control MQC (200 ng/mL) and high quality control (HQC) (400 ng/mL). After spiking, the CS and QC samples were vortex mixed for 5 min at 650 rpm. Analytes were precipitated using 100 μL methanol acidified with 0.05% formic acid containing 50 ng/mL IS in a 1:4 ratio. The samples were then vortex mixed for 5 min at 650 rpm before being transferred to a 96-well Millipore Solvinert 0.45 μm filter plate (Burlington, MA, USA) and centrifuged at 850×g for 2 min at 4° C.
A previously reported UPLC-MS/MS method for the quantification of eleven kratom alkaloids was used to analyze all samples^13. Briefly, the mobile phase composed of aqueous ammonium acetate buffer (2.5 mM, pH 3.5, (A)) and acetonitrile (B). The gradient started at 90% A and 10% B, and A was decreased to 75% by 3.5 min and then to 60% by 10 min. […] An Acquity UPLC® BEH C18 column (1.7 μm, 2.1×100 mm) with a VanGuard precolumn of the same chemistry was used for separation (Waters, Milford, MA, USA). The UPLC-MS/MS was a Waters™ Acquity Class-I chromatograph coupled with a Xevo TQ-S Micro triple quadrupole mass spectrometer (Waters, Milford, MA, USA).
The TargetLynx™ application of MassLynx™ 4.2 was used for data processing and quantification of the UPLC-MS/MS data (Waters, Milford, MA, USA). Phoenix Version 6.4 (Certara, Princeton, NJ, USA) was used for the non-compartmental analysis using a linear log interpolation. Graphpad Prism Version 8 (GraphPad Software, San Diego, CA, USA) was used to plot the concentration-time profiles for each dataset. R Studio version 1.4.1717 was used for statistical analysis (R Foundation for Statistical Computing, Vienna, Austria).

Where [4] appears, read: mitragynine in plasma, oral 20 mg/kg.

For orientation: Tmax means the time from dosing to the highest level. The term bioavailability denotes dose-corrected exposure relative to a reference, in per cent. Read a high bioavailability as much systemic uptake. As for `CC[C@@H]1CN2CCc3c([nH]c4cccc(OC)c34)[C@@H]2C[C@@H]1/C(=C\OC)C(=O)OC` [Mitragynine, mitragynine], in data set [1], the bioavailability of mitragynine was 17%. Besides, the tolerability result in data set [2] is given as “well tolerated”. For the same compound, in data set [3] (Sprague Dawley, rat, in vivo, mitragynine in plasma, oral 20 mg/kg), the Tmax stood at 24 ± 6 min. For the same compound, the bioavailability in data set [3] (Sprague Dawley, rat, in vivo, mitragynine, oral 20 mg/kg) is 37%. The AUC/Dose in data set [3] (mitragynine in plasma, IV […]) worked out at 335 ± 16.5 µg·h/L/mg/kg; in data set [3] (setting [4]), 122.4 ± 13.0 µg·h/L/mg/kg. In data set [3] (setting [4]), the Cmax/Dose amounted to 22.7 ± 4.9 µg/L/mg/kg.
